# Biological target: Recombinant GMPPNP-loaded KRAS G12C (KRAS-G12C(ON), active form) (Homo sapiens, UniProt P01116, G12C)
# Assay: KRAS G12C RAF Disruption Assay (HTRF)
# Type: biochemical
# Conditions: GMPPNP-loaded KRAS G12C 5 nM, GST-RAF1 RBD 9 nM, values given in μM, read-out: KRASG12C RAF Disruption Assay (IC50)
# How it was run: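 GMPPNP-loaded KRAS G12C (5 nM) preincubated with compound 20 min at room temperature in Tris pH 7.5 buffer with MgCl2, DTT and BSA. GST-RAF1 RBD (9 nM) then added for 20 min, and SA-Tb (0.25 nM) for 3 h. HTRF 520/495 ratio read; IC50 taken from the dose-response curve.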
# Sequence of Recombinant GMPPNP-loaded KRAS G12C (KRAS-G12C(ON), active form) (P01116 1-188 isoform P01116-2 G12C): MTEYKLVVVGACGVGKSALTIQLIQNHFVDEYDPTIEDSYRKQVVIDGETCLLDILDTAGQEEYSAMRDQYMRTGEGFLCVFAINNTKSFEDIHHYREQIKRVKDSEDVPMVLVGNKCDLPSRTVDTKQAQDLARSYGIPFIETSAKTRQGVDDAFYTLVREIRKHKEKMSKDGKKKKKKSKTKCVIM
row,Structure (SMILES),IC50 [µM]
1,"Cc1cc(N)nc(-c2c(Cl)cc3c(N4CCN(C(=O)/C(F)=C/c5nccs5)[C@@H](CC(N)=O)C4)nc(OC[C@@H]4CCCN4C)nc3c2F)c1C(F)(F)F (atropisomer, axis not shown; (M)) [Example 47, 2-[(2S)-4-[(7M)-7-[6-amino-4-methyl-3-(trifluoromethyl)pyridin-2-yl]-6-chloro-8-fluoro-2-{[(2S)-1-methylpyrrolidin-2-yl]methoxy}quinazolin-4-yl]-1-[(2Z)-2-fluoro-3-(thiazol-2-yl)prop-2-enoyl]piperazin-2-yl]acetamide]",1.33
2,"C#Cc1c(F)ccc2cc(O)cc(-c3ccc4c(N5C[C@H]6CC[C@@H](C5)N6C(=O)/C(F)=C/c5ncccn5)nc(OC[C@@H]5CCCN5C)nc4c3F)c12 [Example 30, (Z)-1-((1R,5S)-3-(7-(8-ethynyl-7-fluoro-3-hydroxynaphthalen-1-yl)-8-fluoro-2-(((S)-1-methylpyrrolidin-2-yl)methoxy)quinazolin-4-yl)-3,8-diazabicyclo[3.2.1]octan-8-yl)-2-fluoro-3-(pyrimidin-2-yl)prop-2-en-1-one]",21.3
3,"Cc1cc(N)nc(-c2c(Cl)cc3c(N4CCC5C(CCN5C(=O)/C(F)=C/c5nccs5)C4)nc(OC[C@]45CCCN4C[C@H](F)C5)nc3c2F)c1C(F)(F)F (single isomer, unassigned) [Example 26, Isomer 2]",55.2

# Further lines, results first:
row,IC50 [µM],Structure (SMILES)
1,67.6,"Cc1cc(N)nc(-c2c(Cl)cc3c(N4CCC5C4CCN5C(=O)/C(F)=C/c4nccs4)nc(OC[C@]45CCCN4C[C@H](F)C5)nc3c2F)c1C(F)(F)F (single isomer, unassigned) [Example 25, Isomer 2]"
2,16.5,"C#Cc1c(F)ccc2cc(O)cc(-c3c(Cl)cc4c(N5CC6CCC(C5)N6C(=O)/C(F)=C/c5ccccn5)nc(OC[C@@H]5CCCN5C)nc4c3F)c12 (single isomer, unassigned) [Example 20, Isomer 1]"
3,> 100,"C#Cc1c(F)ccc2cc(O)cc(-c3c(Cl)cc4c(N5CC6CCC(C5)N6C(=O)/C(F)=C/c5ccccn5)nc(OC[C@@H]5CCCN5C)nc4c3F)c12 (single isomer, unassigned) [Example 20, Isomer 2]"

# Same assay, conditions: GMPPNP-loaded KRAS G12C 5 nM, GST-RAF1 RBD 9 nM, values in nM, read-out: KRASG12C RAF Disruption Assay (IC50)
row,Structure (SMILES),IC50 [µM]
1,"CCc1cccc2cccc(-c3ccc4c(N5CCN(C(=O)/C(F)=C/c6nccs6)[C@@H](CC#N)C5)nc(OC[C@@H]5CCCN5C)nc4c3F)c12 [Example 60, 2-((S)-4-(7-(8-ethylnaphthalen-1-yl)-8-fluoro-2-(((S)-1-methylpyrrolidin-2-yl)methoxy)quinazolin-4-yl)-1-((Z)-2-fluoro-3-(thiazol-2-yl)acryloyl)piperazin-2-yl)acetonitrile]",0.17
2,"CN1CCC[C@H]1COc1nc(N2CCN(C(=O)/C(F)=C/c3ccccn3)[C@@H](CC#N)C2)c2ccc(-c3cccc4cccc(Cl)c34)c(F)c2n1 [Example 37, 2-((S)-1-((Z)-2-fluoro-3-(pyridin-2-yl)acryloyl)-4-(8-fluoro-7-(8-chloronaphthalen-1-yl)-2-(((S)-1-methylpyrrolidin-2-yl)methoxy)quinazolin-4-yl)piperazin-2-yl)acetonitrile]",0.11
3,"N#CC[C@H]1CN(c2nc(OC[C@@]34CCCN3C[C@H](F)C4)nc3c(F)c(-c4cccc5cccc(Cl)c45)ccc23)CCN1C(=O)/C(F)=C/c1ccccn1 [Example 41, 2-((S)-4-(7-(8-chloronaphthalen-1-yl)-8-fluoro-2-(((2R,7aS)-2-fluorotetrahydro-1H-pyrrolizin-7a(5H)-yl)methoxy)quinazolin-4-yl)-1-((Z)-2-fluoro-3-(pyridin-2-yl)acryloyl)piperazin-2-yl)acetonitrile]",0.046
4,"Cc1cc(N)nc(-c2c(Cl)cc3c(N4C[C@]5(NC(=O)/C(F)=C/c6ccccn6)CC[C@H]4C5)nc(OC[C@]45CCCN4C[C@H](F)C5)nc3c2F)c1C(F)(F)F (atropisomer, axis not shown; (M)) [Example 43, (2Z)-N-[(1S,4S)-2-[(7M)-2-{[(2R,7aR)-2-fluoro-hexahydro-1H-pyrrolizin-7a-yl]methoxy}-7-[6-amino-4-methyl-3-(trifluoromethyl)pyridin-2-yl]-6-chloro-8-fluoroquinazolin-4-yl]-2-azabicyclo[2.2.1]heptan-4-yl]-2-fluoro-3-(pyridin-2-yl)prop-2-enamide]",0.19
5,"CCc1cccc2cccc(-c3ccc4c(N5CCN(C(=O)/C(F)=C/c6ccccn6)[C@@H](CC#N)C5)nc(OC[C@@H]5CCCN5C)nc4c3F)c12 [Example 59, 2-((S)-4-(7-(8-ethylnaphthalen-1-yl)-8-fluoro-2-(((S)-1-methylpyrrolidin-2-yl)methoxy)quinazolin-4-yl)-1-((Z)-2-fluoro-3-(pyridin-2-yl)acryloyl)piperazin-2-yl)acetonitrile]",0.26

# Continued, values first:
row,IC50 [µM],Structure (SMILES)
1,0.025,"Cc1cccc(/C=C(\F)C(=O)N2CCN(c3nc(OC[C@@H]4CCCN4C)nc4c(F)c(-c5cccc6cccc(Cl)c56)ccc34)C[C@@H]2CC#N)n1 [Example 36, 2-((S)-1-((Z)-2-fluoro-3-(6-methylpyridin-2-yl)acryloyl)-4-(8-fluoro-7-(8-chloronaphthalen-1-yl)-2-(((S)-1-methylpyrrolidin-2-yl)methoxy)quinazolin-4-yl)piperazin-2-yl)acetonitrile]"
2,0.26,"C#Cc1c(F)ccc2cc(O)cc(-c3ccc4c(N5C[C@H]6CC[C@@H](C5)N6C(=O)/C(F)=C/c5ccccn5)nc(OC[C@@H]5CCCN5C)nc4c3F)c12 [Example 22, (Z)-1-((1R,5S)-3-(7-(8-ethynyl-7-fluoro-3-hydroxynaphthalen-1-yl)-8-fluoro-2-(((S)-1-methylpyrrolidin-2-yl)methoxy)quinazolin-4-yl)-3,8-diazabicyclo[3.2.1]octan-8-yl)-2-fluoro-3-(pyridin-2-yl)prop-2-en-1-one]"
3,7.9,"Cc1cc(N)nc(-c2c(Cl)cc3c(N4CC[C@@H]5CC[C@H](C4)N5C(=O)/C(F)=C/c4nccs4)nc(OC[C@]45CCC[C@H]4N(C)CCC5)nc3c2F)c1C(F)(F)F [Example 70, (Z)-1-((1R,6S)-3-(7-(6-amino-4-methyl-3-(trifluoromethyl)pyridin-2-yl)-6-chloro-8-fluoro-2-(((4aS,7aR)-1-methyloctahydro-4aH-cyclopenta[b]pyridin-4a-yl)methoxy)quinazolin-4-yl)-3,9-diazabicyclo[4.2.1]nonan-9-yl)-2-fluoro-3-(thiazol-2-yl)prop-2-en-1-one]"
4,0.05,"Cc1ccc2[nH]ncc2c1-c1ccc2c(N3CCN(C(=O)/C(F)=C/c4nccs4)[C@@H](CC#N)C3)nc(OC[C@@]34CCCN3C[C@H](F)C4)nc2c1F [Example 77, 2-((2S)-4-(8-fluoro-2-(((2R,7aS)-2-fluorotetrahydro-1H-pyrrolizin-7a(5H)-yl)methoxy)-7-(5-methyl-1H-indazol-4-yl)quinazolin-4-yl)-1-((Z)-2-fluoro-3-(thiazol-2-yl)acryloyl)piperazin-2-yl)acetonitrile]"
5,0.29,"C#Cc1c(F)ccc2cc(O)cc(-c3ccc4c(N5C[C@H]6CC[C@@H](C5)N6C(=O)/C(F)=C/c5cccc(C)n5)nc(OC[C@@H]5CCCN5C)nc4c3F)c12 [Example 35, (Z)-1-((1R,5S)-3-(7-(8-ethynyl-7-fluoro-3-hydroxynaphthalen-1-yl)-8-fluoro-2-(((S)-1-methylpyrrolidin-2-yl)methoxy)quinazolin-4-yl)-3,8-diazabicyclo[3.2.1]octan-8-yl)-2-fluoro-3-(6-methylpyridin-2-yl)prop-2-en-1-one]"

# — patent US20250263424A1, “KRAS INHIBITORS” (Bristol-Myers Squibb Company, priority 2022, published 2025)
